Values quoted from earlier work in US9044508B2, “Concentrated aqueous azalide formulations” (INSITE VISION CORPORATION, priority 2013, dated 2015).

Details: aqueous formulation

pH of maximum stability: about 6.3
SMILES: CC[C@H]1OC(=O)[C@H](C)[C@@H](O[C@H]2C[C@@](C)(OC)[C@@H](O)[C@H](C)O2)[C@H](C)[C@@H](O[C@@H]2O[C@H](C)C[C@H](N(C)C)[C@H]2O)[C@](C)(O)C[C@@H](C)CN(C)[C@H](C)[C@@H](O)[C@]1(C)O [azithromycin, N-methyl-1′-aza-10-deoxo-10-dihydroerythromycin]
